# Laboratory results as given in paper PMC13075795, “A dual-threshold system relying on multiple c-di-GMP metabolic enzymes controls cell fate of a cyanobacterium” (PLOS Biology, 2026).
# T1: CdgS (Nostoc sp. PCC 7120 = FACHB-418, UniProt A0ACD7RTW6)
# T1 construct: gene all2874; full-length; pHTwinStrep vector, C-terminal twin Strep-tag kept; expressed in E. coli BL21(DE3); Strep-Tactin and SEC
# T1 sequence (A0ACD7RTW6 1-330): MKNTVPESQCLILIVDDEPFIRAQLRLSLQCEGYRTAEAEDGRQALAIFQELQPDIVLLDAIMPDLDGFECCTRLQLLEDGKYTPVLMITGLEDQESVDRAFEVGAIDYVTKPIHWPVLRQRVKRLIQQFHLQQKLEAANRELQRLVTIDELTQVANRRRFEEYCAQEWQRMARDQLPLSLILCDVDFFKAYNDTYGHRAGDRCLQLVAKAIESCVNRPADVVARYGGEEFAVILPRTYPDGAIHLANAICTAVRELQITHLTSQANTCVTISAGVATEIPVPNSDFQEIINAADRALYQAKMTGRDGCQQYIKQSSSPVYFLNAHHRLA
# Assays:
# [1] = molecular target: T2, Alr3599 (Nostoc sp. PCC 7120 = FACHB-418, UniProt A0ACD7RVV5); assay: HPLC diguanylate cyclase inhibition assay (GTP consumption); type: biochemical
# T2 construct: full-length; pHTwinStrep vector, C-terminal twin Strep-tag kept; expressed in E. coli BL21(DE3); Strep-Tactin and SEC
# [2] = molecular target: T1, CdgS; assay: as above; type: biochemical
# [3] = molecular target: T3, Alr1219-ΔCT (All1219-ΔCT) (Nostoc sp. PCC 7120 = FACHB-418, UniProt A0ACD7RQN0); assay: as above; type: biochemical
# T3 construct: C-terminal twin Strep-tag kept; expressed in E. coli BL21(DE3)
# [4] = substrate: Nc1nc2c(ncn2[C@@H]2O[C@H](COP(=O)(O)OP(=O)(O)OP(=O)(O)O)[C@@H](O)[C@H]2O)c(=O)[nH]1; assay: HPLC diguanylate cyclase assay, Michaelis-Menten fit; type: biochemical, Nostoc sp. PCC 7120 = FACHB-418; details: 3.13-200 μM GTP, 1 μM protein, 10 min, 25 °C, 50 mM Tris-HCl pH 8.0, 0.2 M NaCl, 10 mM MgCl2
Ki [1],Ki [2],Ki [3],Molecule,Km [4]
16 µM,2.42 µM,3.7 µM,Nc1nc2c(ncn2[C@@H]2O[C@@H]3CO[P@](=O)(O)O[C@H]4[C@@H](O)[C@H](n5cnc6c(=O)[nH]c(N)nc65)O[C@@H]4CO[P@](=O)(O)O[C@H]3[C@H]2O)c(=O)[nH]1 [c-di-GMP],–
–,–,–,"Alr3599 (Nostoc sp. PCC 7120 = FACHB-418) (protein, full-length; pHTwinStrep vector, C-terminal twin Strep-tag kept; expressed in E. coli BL21(DE3); Strep-Tactin and SEC) MSGISPYSLSKKPPVILVADDDKTIRMLLREAMEKEGYRVVEVTDGKQCLDAYEAVKPDIVLLDAMMPVMDGFTCCKQLLQIARNNLITALANLDTDSGLGNTVISRLWERTPILMITSLNDAESVDRAFEAGATDYITKPIHWAVLRQRLRRLLQQAQVYKQLEAANMALQHLANVDGLTGLANRRRFDNYLNTQWINLVQEGAPLSLILCDIDYFKFYNDQYGHPTGDICLQKVGAVLSYKAQKHQDLVARYGGEEFAVVMPYTHAKGAIYVAHAIQTSVRDLQIAHDKSAVSQHITLSMGVATITPTWESSPSDLIAAADKALYKAKESGRNRICQWEDSQ",84.2 ± 30.1 µM
–,–,–,"Alr1219-ΔCT (All1219-ΔCT) (Nostoc sp. PCC 7120 = FACHB-418) (protein, C-terminal twin Strep-tag kept; expressed in E. coli BL21(DE3)) HMQEELKRSKEFLQQVIDTIADPIFVKNEQHQWIVLNKAYCRFIGYPESFLVEKSDVDFFPKHEADVFRQQDELVFETQRPQENEEEFTDAYGKTHLIATKRSLHKDAAGNFFLVGVIRDITQRKIMEEELKRTAAELFRSNNELKLKEDHLRYLAYHDALTGLPNRKYFAEQLYESINWAKDNNLSLGLLFIDLDGFKQVNDSLGHEMGDRLLVVIAQRLSNSLRASDTVARLGGDEFTVILQAIPNVQVAAKVAEKILANITEPIVLNGCTAKVSVSIGISIYPETSLDPDTLLKKADAAMYRAKHLGKNRFELADRVNTEF",20.3 ± 12.4 µM
–,–,–,"CdgS (Nostoc sp. PCC 7120 = FACHB-418) (protein, full-length; pHTwinStrep vector, C-terminal twin Strep-tag kept; expressed in E. coli BL21(DE3); Strep-Tactin and SEC) MKNTVPESQCLILIVDDEPFIRAQLRLSLQCEGYRTAEAEDGRQALAIFQELQPDIVLLDAIMPDLDGFECCTRLQLLEDGKYTPVLMITGLEDQESVDRAFEVGAIDYVTKPIHWPVLRQRVKRLIQQFHLQQKLEAANRELQRLVTIDELTQVANRRRFEEYCAQEWQRMARDQLPLSLILCDVDFFKAYNDTYGHRAGDRCLQLVAKAIESCVNRPADVVARYGGEEFAVILPRTYPDGAIHLANAICTAVRELQITHLTSQANTCVTISAGVATEIPVPNSDFQEIINAADRALYQAKMTGRDGCQQYIKQSSSPVYFLNAHHRLA",26.6 ± 3.5 µM
